Test results from ChEMBL document CHEMBL4725485, “Bivalent Ligand Aiming Putative Mu Opioid Receptor and Chemokine Receptor CXCR4 Dimers in Opioid Enhanced HIV-1 Entry” (ACS Med Chem Lett, 2020).
The source made the active and inactive calls. The calls are words filed in the database; no cut-off is given here.

Key:
Mu-type opioid receptor [1] = target: Mu-type opioid receptor (Mus musculus, UniProt P42866); assay: Displacement of [3H]-NLX from mouse mu opioid receptor expressed in CHO cells measured after 1.5 hrs by competitive-binding assay; assay type: cell-based
[2] = target: T1, C-X-C chemokine receptor type 4 (Homo sapiens, UniProt P61073); assay: Displacement of [125I]SDF-1alpha from CXCR4 in human Chem-1 cells measured after 90 mins; assay type: cell-based
Mu-type opioid receptor [3] = target: T2, Mu-type opioid receptor (Homo sapiens, UniProt P35372); assay: Agonist activity at mu opioid receptor (unknown origin) assessed as maximum efficacy by [35S]-GTPgammaS binding assay relative to DAMGO; assay type: functional; conditions: filed as agonist
Mu-type opioid receptor [4] = target: T2, Mu-type opioid receptor; assay: Antagonist activity at human mu opioid receptor expressed in CHO cells co- expressing Gqi5 assessed as decrease in DAMGO-induced intracellular calcium mobilization incubated for 15 mins followed by DAMGO addition by Fluo-AM dye based fluorescence assay; assay type: functional, cell-based
[5] = Cytotoxicity against human GHOST CXCR4 cells assessed as reduction in cell viability incubated for 4 hrs by XTT assay; assay type: cell-based; conditions: read-out: TC50
[6] = tested on: Human immunodeficiency virus 1; assay: Antiviral activity against HIV1 3B infected in human TZM-bl cells assessed as reduction in viral entry by measuring Tat protein level at 1000 nM measured after 3 days by luciferase-based assay; assay type: functional, organism-based; conditions: time 3.0 day
TZM-bl = assay: Inhibition of HIV1 3B Tat infected in human TZM-bl cells assessed as reduction in viral entry in cells at 30 uM when pretreated for 1 hr followed by HIV1 3B infection and further incubated for 2 days followed by luciferase substrate addition by luminescence assay relative to control; assay type: cell-based; conditions: Human immunodeficiency virus 1, time 2.0 day
[7] = tested on: Human immunodeficiency virus 1; assay: Antiviral activity against HIV1 3B infected in human TZM-bl cells assessed as reduction in viral entry by measuring Tat protein level at 1000 nM measured after 3 days in presence of morphine by luciferase-based assay; assay type: functional, organism-based; conditions: time 3.0 day
[8] = Inhibition of HIV1 3B Tat infected in human TZM-bl cells assessed as reduction in viral entry in cells when pretreated for 1 hr followed by HIV1 3B infection and further incubated for 2 days followed by luciferase substrate addition by luminescence assay; assay type: cell-based; conditions: Human immunodeficiency virus 1, 3B
[9] = target: T1, C-X-C chemokine receptor type 4; assay: Antagonist activity at CXCR4 (unknown origin) expressed in CHO cells assessed as reduction in SDF1-induced intracellular calcium mobilization incubated for 15 mins followed by SDF1 addition by Fluo-AM dye based fluorescence assay; assay type: functional, cell-based
[10] = Therapeutic index, ratio of TC50 for human GHOST CXCR4 cells assessed as reduction in cell viability incubated for 4 hrs by XTT assay to EC50 for HIV1 3B reverse transcriptase infected in human GHOST CXCR4 cells assessed as reduction in viral replication incubated for 60 to 90 mins in presence of DTT and TTP by liquid scintillation counter; assay type: toxicity, cell-based; conditions: read-out: TI
Mu-type opioid receptor [11] = target: T2, Mu-type opioid receptor; assay: Agonist activity at mu opioid receptor (unknown origin) by [35S]-GTPgammaS binding assay; assay type: functional
[12] = tested on: Human immunodeficiency virus 1; assay: Antiviral activity against HIV1 3B infected in human TZM-bl cells assessed as reduction in viral entry by measuring Tat protein level at 60 nM measured after 3 days in presence of morphine by luciferase-based assay; assay type: functional, organism-based; conditions: time 3.0 day
[13] = tested on: Human immunodeficiency virus 1; assay: Antiviral activity against HIV1 3B infected in human TZM-bl cells assessed as reduction in viral entry by measuring Tat protein level at 60 nM measured after 3 days in presence of naltrexone and morphine by luciferase-based assay; assay type: functional, organism-based; conditions: time 3.0 day
[14] = tested on: Human immunodeficiency virus 1; assay: Antiviral activity against HIV1 3B infected in human TZM-bl cells assessed as reduction in viral entry by measuring Tat protein level at 60 nM measured after 3 days by luciferase-based assay; assay type: functional, organism-based; conditions: time 3.0 day
[15] = tested on: Human immunodeficiency virus 1; assay: Antiviral activity against HIV1 3B infected in human TZM-bl cells assessed as reduction in viral entry by measuring Tat protein level at 1500 nM measured after 3 days in presence of IT1T and morphine by luciferase-based assay; assay type: functional, organism-based; conditions: time 3.0 day

T2 sequence (P35372 whole entry): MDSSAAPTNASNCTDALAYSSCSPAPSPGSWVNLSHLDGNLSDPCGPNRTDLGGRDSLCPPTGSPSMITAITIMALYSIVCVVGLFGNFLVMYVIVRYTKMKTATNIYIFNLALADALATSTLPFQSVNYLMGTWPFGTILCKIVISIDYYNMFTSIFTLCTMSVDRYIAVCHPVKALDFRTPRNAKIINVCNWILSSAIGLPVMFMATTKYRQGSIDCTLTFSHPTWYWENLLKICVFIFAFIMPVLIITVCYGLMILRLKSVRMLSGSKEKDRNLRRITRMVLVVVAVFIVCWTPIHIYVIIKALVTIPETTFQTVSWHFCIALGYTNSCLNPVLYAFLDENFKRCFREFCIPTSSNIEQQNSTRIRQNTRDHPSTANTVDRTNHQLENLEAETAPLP
T1 sequence (P61073 whole entry): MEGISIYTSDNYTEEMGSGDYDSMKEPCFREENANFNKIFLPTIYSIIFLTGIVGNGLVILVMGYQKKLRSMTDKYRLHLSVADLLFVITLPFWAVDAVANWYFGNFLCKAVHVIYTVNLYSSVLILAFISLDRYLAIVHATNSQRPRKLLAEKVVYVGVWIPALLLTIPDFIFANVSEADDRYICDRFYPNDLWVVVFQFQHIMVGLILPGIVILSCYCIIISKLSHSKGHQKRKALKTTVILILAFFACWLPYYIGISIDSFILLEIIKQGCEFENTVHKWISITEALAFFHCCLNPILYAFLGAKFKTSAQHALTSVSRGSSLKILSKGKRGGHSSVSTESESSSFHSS
Chain of Mu-type opioid receptor (Mus musculus, UniProt P42866) (P42866 whole entry): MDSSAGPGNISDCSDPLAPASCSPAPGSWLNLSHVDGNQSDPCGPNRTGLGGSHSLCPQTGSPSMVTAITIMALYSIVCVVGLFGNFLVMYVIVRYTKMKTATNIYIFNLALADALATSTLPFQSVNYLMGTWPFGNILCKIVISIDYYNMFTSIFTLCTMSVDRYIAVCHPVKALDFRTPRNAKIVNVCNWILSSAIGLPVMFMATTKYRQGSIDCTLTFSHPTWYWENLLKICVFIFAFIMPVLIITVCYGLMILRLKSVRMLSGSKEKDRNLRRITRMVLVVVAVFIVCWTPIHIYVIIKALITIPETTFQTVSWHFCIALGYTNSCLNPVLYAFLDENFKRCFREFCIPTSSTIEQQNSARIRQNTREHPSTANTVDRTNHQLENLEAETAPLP

CC1(C)CN2C(CS/C(=N\[C@H]3CC[C@H](CNC(=O)COCC(=O)NCCCCCCCCNC(=O)COCC(=O)N[C@@H]4CC[C@@]5(O)[C@H]6Cc7ccc(O)c8c7[C@@]5(CCN6CC5CC5)[C@H]4O8)CC3)NC3CCCCC3)=CSC2=N1
Ki (Mu-type opioid receptor [1]): 2.92 nM

CC1(C)CN2C(CS/C(=N\[C@H]3CC[C@H](CNC(=O)COCC(=O)NCCCCCCNC(=O)COCC(=O)N[C@@H]4CC[C@@]5(O)[C@H]6Cc7ccc(O)c8c7[C@@]5(CCN6CC5CC5)[C@H]4O8)CC3)NC3CCCCC3)=CSC2=N1
IC50 [2]: 17.2 nM

CC1(C)CN2C(CS/C(N)=N\[C@H]3CC[C@H](CNC(=O)COCC(=O)NCCCCNC(=O)COCC(=O)N[C@@H]4CC[C@@]5(O)[C@H]6Cc7ccc(O)c8c7[C@@]5(CCN6CC5CC5)[C@H]4O8)CC3)=CSC2=N1
IC50 [2]: 3600 nM | Emax (Mu-type opioid receptor [3]): 9.5% | IC50 (Mu-type opioid receptor [4]): 30.5 nM | Ki (Mu-type opioid receptor [1]): 3.8 nM | CC50 at 4 h [5]: 153000 nM | Activity [6]: Active | inhibition (TZM-bl): 100% | Activity [7]: Active | IC50 [8]: 300 nM | IC50 [9]: 8300 nM | selectivity ratio at 4 h [10]: 160 | EC50 (Mu-type opioid receptor [11]): 50 nM

CC1(C)CN2C(CS/C(=N\C3CCCCC3)NC3CCCCC3)=CSC2=N1
Activity [12]: Active | Activity [13]: Active | CC50 at 4 h [5]: > 1000 nM | IC50 [8]: 164 nM | Activity [14]: Active

O=C1CC[C@@]2(O)[C@H]3Cc4ccc(O)c5c4[C@@]2(CCN3CC2CC2)[C@H]1O5
Activity [15]: Active

CNC(=O)COCC(=O)NCCCCNC(=O)COCC(=O)NC[C@H]1CC[C@H](/N=C(\NC2CCCCC2)SCC2=CSC3=NC(C)(C)CN23)CC1
IC50 [2]: 69000 nM | IC50 [9]: 53000 nM | selectivity ratio at 4 h [10]: 3.8

CNC(=O)COCC(=O)NCCCCNC(=O)COCC(=O)N[C@@H]1CC[C@@]2(O)[C@H]3Cc4ccc(O)c5c4[C@@]2(CCN3CC2CC2)[C@H]1O5
Emax (Mu-type opioid receptor [3]): 12.3% | IC50 (Mu-type opioid receptor [4]): 254 nM | Ki (Mu-type opioid receptor [1]): 3.1 nM | EC50 (Mu-type opioid receptor [11]): 8.1 nM
